Consider one compound from PMC12521527, “In vivo self-assembled nano-PROTAC for the dual degradation of AR and HSP90 to overcome castration-resistant prostate cancer resistance” (Signal Transduction and Targeted Therapy, 2025).

Numbered stars: 1 amine (or outer) side, 2 acyl side, 3 side chain; on linkers, the order of the positions; unused ones are H or OH. Square brackets hold non-standard residues; d marks the D form. Peptide text beside a SMILES is read from it. * marks the point of attachment. X2 = CC1(C)C(=O)N(c2ccc(C#N)c(C(F)(F)F)c2)C(=S)N1c1ccc(C(=O)*)c(F)c1; X1 = O=C1CCC(N2C(=O)c3cccc(N(CC(=O)[*:2])[*:1])c3C2=O)C(=O)N1; EuK = O=C(O)CC[C@H](NC(=O)N[C@@H](CCCCN*)C(=O)O)C(=O)O; 2Nal = N[C@@H](Cc1ccc2ccccc2c1)C(=O)O

Data set [1] has as its system 22Rv1 xenograft tumor. Kind of data set: Antitumor efficacy in 22Rv1 xenograft mice. It counts as in vivo, BALB/c nude mice. The settings on record: dose study, intravenous every 48 h, five cycles, 20 days.
Data set [2] has as its system 22Rv1 cells. Kind of data set: Annexin V/PI apoptosis by flow cytometry. It counts as cell-based. The note with it: 22Rv1, 20 μM, 48 h, n = 3. As for the experimental part:
(§1) All uncropped blots are presented in Supplementary Fig. 26. j, k Representative 22Rv1 cell CLSM images of the degradation of AR after incubation with FITC-labeled Psa-AR for 12 h and quantitative analysis, n = 3 per group. Scale bar: 10 μm. l, m Representative 22Rv1 cell CLSM images of the degradation of HSP90 after incubation with FITC-labeled Psa-AR for 12 h and quantitative analysis, n = 3 per group. Scale bar: 10 μm. n AR-V7 expression in 22Rv1 cells after treatment with PBS, P-AR (20 μM), Psa-AR (20 μM) or Psa-AR (20 μM) combined with MG132 (2 μM) for 48 h, as determined by western blotting. β-Actin was used as an internal reference. o Results of apoptosis in 22Rv1 cells treated with PBS, P-AR (20 μM), or Psa-AR (20 μM) for 48 h, as detected by flow cytometry.

The test system of data set [3] is AR-V7. Put plainly: Western blot AR-V7 degradation in 22Rv1 cells. Type of data set: cell-based. The note with it: 22Rv1, 20 μM, 48 h. The protocol: as §1
The pretreated cells were resuspended in lysis buffer containing 50 mM Tris-HCl (pH 8.0), 150 mM NaCl, 1% (v/v) Triton X-100, and protease inhibitors. The protein concentration was determined via a BCA kit (Applygen). Each sample ([…]) was subjected to SDS‒PAGE and then transferred to a PVDF membrane. The blots were blocked in 5% (wt/v) blocking buffer. After washing three times with TBST buffer (10 mM TBS solution containing 0.1% (v/v) Tween-20), the blots were incubated with primary antibodies at 4 °C on a shaker for 16 h. […]

Data set [4] is described as follows: Cellular cytotoxicity, LNCaP. Type of data set: cell-based. The settings on record: human, LNCaP cells.
The nature of data set [5]: In vivo and ex vivo fluorescence imaging (biodistribution). The note with it: Cy7-labeled, 30 mg/kg intravenous. The arrangement: species or system BALB/c nude mice. As for the experimental part: Fig. 5 In vivo evaluation of Psa-AR enrichment and retention. a Representative immunohistochemical (IHC) staining of PSMA and AR expression in tumor tissues from three patients with prostate cancer before and after androgen deprivation therapy. The expression levels of PSMA and AR were assessed in serial sections at identical locations. Scale bars: 40 μm. b In vivo fluorescence images of 22Rv1 xenograft mice after treatment with Cy7-labeled P-AR and Psa-AR (30 mg/kg in 200 μL of PBS) for 2 h and 24 h. c Biodistribution in the tumors and main organs of 22Rv1 xenograft mice after injection with Cy7-labeled Psa-AR (30 mg/kg in 200 μL of PBS) for 24 h. (H Heart, Li Liver, Sp Spleen, Lu Lung, Ki Kidney, T Tumor). d Quantitative analysis of the fluorescence images in (c), n = 3 per group
BALB/c nude mice (6–8 weeks old, 16–18 g) were housed in a specific-pathogen-free (SPF) environment. All experiments were conducted in accordance with the Guidelines for the Management and Use of Laboratory Animals and were approved by the Animal Research Committee of the National Center for Nanoscience and Technology (NCNST 21-202503-0020). […] For ex vivo fluorescence imaging, 22Rv1 xenograft mice were intravenously injected with Cy7-labeled Psa-AR (30 mg/kg in 200 µL of PBS) and sacrificed 24 h post-injection to excise major organs (heart, liver, spleen, lung, and kidney) and tumors.

The target in data set [6] is CRBN protein (Homo sapiens, UniProt Q96SW2). Put plainly: MST binding affinity, Psa-AR and CRBN protein. The settings on record: RED-NHS-labeled CRBN 400 nM, PBS-T, 22 °C, n = 3. From the text:
Fig. 3 Polynary nanocomposite (AR: Psa-AR: CRBN) formation. a Dose‒response curve for the binding interaction between Psa-AR and the AR protein; n = 3 per group. b Dose‒response curve for the binding interaction between Psa-AR and the CRBN protein; n = 3 per group. c Dose‒response curve for the binding interaction between the binary complex (Psa-AR: AR) and CRBN, n = 3 per group. d In vitro Psa-AR self-assembly, protein binding and degradation. e Representative 22Rv1 cell CLSM images of FITC-labeled Psa-AR assembly (green channel) interacting with HSP90 (red channel) and its colocalization analysis (1–1’). […] Scale bar: 10 μm.
MST (NanoTemper Technologies GmbH, Munich, Germany) was utilized to evaluate the binding affinity between Psa-AR and RED-NHS-labeled PSMA, AR, or CRBN proteins. The PSMA, AR, and CRBN proteins were labeled with the Protein Labeling Kit RED-NHS 2nd Generation (Amine Reactive). RED-PSMA, RED-AR, and RED-CRBN proteins were diluted to a final concentration of 400 nM with PBS-T buffer (0.05% Tween 20), where the fluorescence signals satisfied the typical detection limit of the Monolith NT.115 instrument (NanoTemper Technologies). The binding affinity between Psa-AR and the RED-NHS-labeled AR protein was assessed. […] Then, 10 µL of RED-CRBN was added to each sample to achieve a final concentration of 400 nM. […] The data were analyzed by NanoTemper analysis software.

Data set [7] relates to HSP90. Put plainly: HSP90 degradation in LNCaP cells. It counts as cell-based. The settings on record: time-dependent evaluation. As for the experimental part:
The pretreated cells were resuspended in lysis buffer containing 50 mM Tris-HCl (pH 8.0), 150 mM NaCl, 1% (v/v) Triton X-100, and protease inhibitors. The protein concentration was determined via a BCA kit (Applygen). Each sample ([…]) was subjected to SDS‒PAGE and then transferred to a PVDF membrane. The blots were blocked in 5% (wt/v) blocking buffer. After washing three times with TBST buffer (10 mM TBS solution containing 0.1% (v/v) Tween-20), the blots were incubated with primary antibodies at 4 °C on a shaker for 16 h. After washing with TBST buffer three times, the blot was incubated with secondary antibodies at room temperature on a shaker for 2 h. After being washed three times with TBST buffer, the blots were subsequently scanned on a Typhoon Trio Variable Mode Imager.

In data set [8] the target is PSMA protein (Homo sapiens, UniProt Q04609). Put plainly: MST binding affinity, Psa-AR and PSMA protein. The note with it: RED-NHS-labeled PSMA 400 nM, PBS-T (0.05% Tween 20), 22 °C, n = 3, read-out: Kd, binding affinity between Psa-AR and PSMA. As for the experimental part:
Fig. 1 Protein-induced self-assembly behaviors of Psa-AR in vitro. a Six tissue samples from patients with prostate tumors (1–6) and six from patients with normal prostates (1’–6’) were obtained clinically. The expression of CRBN in these samples was analyzed by immunohistochemistry (IHC).
MST (NanoTemper Technologies GmbH, Munich, Germany) was utilized to evaluate the binding affinity between Psa-AR and RED-NHS-labeled PSMA, AR, or CRBN proteins. The PSMA, AR, and CRBN proteins were labeled with the Protein Labeling Kit RED-NHS 2nd Generation (Amine Reactive). RED-PSMA, RED-AR, and RED-CRBN proteins were diluted to a final concentration of 400 nM with PBS-T buffer (0.05% Tween 20), where the fluorescence signals satisfied the typical detection limit of the Monolith NT.115 instrument (NanoTemper Technologies). The binding affinity between Psa-AR and the RED-NHS-labeled AR protein was assessed. […] Then, 10 µL of RED-CRBN was added to each sample to achieve a final concentration of 400 nM. After incubation for 20 min, the samples were loaded into standard/premium-treated capillaries. All the experiments were performed at 22 °C. The data were analyzed by NanoTemper analysis software.

In data set [9] the test system is 22Rv1 cells. It counts as cell-based. The note with it: n = 6, read-out: IC50, cell viability.

Chain of PSMA protein (Q04609 whole entry): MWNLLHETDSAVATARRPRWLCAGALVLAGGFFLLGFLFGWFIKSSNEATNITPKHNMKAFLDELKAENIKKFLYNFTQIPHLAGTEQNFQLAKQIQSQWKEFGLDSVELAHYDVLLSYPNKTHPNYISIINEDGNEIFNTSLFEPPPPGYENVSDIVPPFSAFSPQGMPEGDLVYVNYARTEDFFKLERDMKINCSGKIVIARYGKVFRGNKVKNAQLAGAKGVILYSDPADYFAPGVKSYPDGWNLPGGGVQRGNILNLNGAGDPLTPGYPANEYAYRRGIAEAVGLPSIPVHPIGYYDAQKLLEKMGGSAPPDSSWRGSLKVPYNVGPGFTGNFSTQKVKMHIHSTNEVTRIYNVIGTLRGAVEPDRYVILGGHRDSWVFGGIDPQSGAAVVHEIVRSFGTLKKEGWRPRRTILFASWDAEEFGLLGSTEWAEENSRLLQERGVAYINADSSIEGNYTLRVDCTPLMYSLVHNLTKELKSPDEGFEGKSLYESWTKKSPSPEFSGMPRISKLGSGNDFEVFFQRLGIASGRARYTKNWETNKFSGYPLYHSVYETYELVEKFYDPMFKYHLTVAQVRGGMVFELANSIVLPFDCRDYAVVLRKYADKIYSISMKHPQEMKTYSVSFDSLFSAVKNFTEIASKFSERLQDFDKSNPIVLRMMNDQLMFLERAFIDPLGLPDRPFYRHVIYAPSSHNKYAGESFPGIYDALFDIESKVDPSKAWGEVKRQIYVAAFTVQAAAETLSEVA
Chain of CRBN protein (Q96SW2 whole entry): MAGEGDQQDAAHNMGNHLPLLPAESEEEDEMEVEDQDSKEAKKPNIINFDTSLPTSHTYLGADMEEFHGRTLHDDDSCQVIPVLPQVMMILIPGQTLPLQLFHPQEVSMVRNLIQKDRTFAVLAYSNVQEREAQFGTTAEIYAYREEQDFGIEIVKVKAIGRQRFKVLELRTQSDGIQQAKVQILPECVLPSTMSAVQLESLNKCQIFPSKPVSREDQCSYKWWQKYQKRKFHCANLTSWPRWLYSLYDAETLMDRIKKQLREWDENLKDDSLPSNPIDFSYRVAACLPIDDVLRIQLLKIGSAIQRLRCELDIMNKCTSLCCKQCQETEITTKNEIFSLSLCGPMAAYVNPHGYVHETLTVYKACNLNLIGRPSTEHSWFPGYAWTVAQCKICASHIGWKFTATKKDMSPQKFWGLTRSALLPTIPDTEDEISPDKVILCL

As for `CC1(C)C(=O)N(c2ccc(C#N)c(C(F)(F)F)c2)C(=S)N1c1ccc(C(=O)NCCCC[C@H](NC(=O)CNc2cccc3c2C(=O)N(C2CCC(=O)NC2=O)C3=O)C(=O)N[C@@H](CS)C(=O)N[C@@H](CCC(N)=O)C(=O)N[C@@H](Cc2ccc(O)cc2)C(=O)N[C@@H](CC(N)=O)C(=O)N[C@@H](CCC(N)=O)C(=O)N[C@@H](Cc2ccc(O)cc2)C(=O)N[C@@H](Cc2ccc(O)cc2)C(=O)N[C@@H](Cc2ccc3ccccc3c2)C(=O)NCCCC[C@H](NC(=O)N[C@@H](CCC(=O)O)C(=O)O)C(=O)O)c(F)c1` (stereo partly shown) [Psa-AR] (H-[X1]K(X2)CQYNQYY[2Nal]-EuK), the “mean tumor volume at 10 mg/kg” value in data set [1] was determined as 220 mm^3. Moreover, the “total apoptotic cells (early and late phases)” value in data set [2] came out at 75%. The “greater AR-V7 degradation than P-AR” value in [3] is listed as 66%. Further, the IC50 in data set [4] stood at 11.1 ± 1.4 µM; in data set [9] it was 10.9 ± 1.1 µM. In addition, the “tumor deposition relative to P-AR” value in data set [5] (2 h, 22Rv1 xenograft mice) is listed as 4 fold. Also, the “tumor retention, residual signal at 24 h” value in data set [5] (24 h) is 78%. For the same compound, the values for the Kd in data set [6] and in data set [8] were 1.06 µM and 0.0072 µM, respectively. In addition, in [7], the HSP90 degradation rate amounted to 70%.
